Experimental data taken from ChEMBL document CHEMBL1201862, “PubChem BioAssay data set” (2004).
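Where inhibition never reached the appropriate level, the endpoint shown equals the highest concentration tested. Otherwise, values were interpolated linearly from a five-concentration, 48-hour dose response in 96-well plates. The concentration for 50% growth inhibition is given as GI50.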 Calls of active or inactive are those of the source. Rule as the data show it: active = GI50 up to about 1.1 µM and inactive = higher.

What was measured:
Test in all cases: NCI-60 cell line screen, 48 h
[1] = system: 786-0
[2] = system: ACHN
[3] = system: HOP-62
[4] = system: HOP-92
[5] = system: HT-29
[6] = system: K562
[7] = system: MDA-N
[8] = system: NCI-H226
[9] = system: OVCAR-4
[10] = system: OVCAR-5
[11] = system: PC-3
[12] = system: SF-268
[13] = system: SF-295
[14] = system: SK-MEL-5
[15] = system: T47D
[16] = system: TK-10
[17] = system: U-251
[18] = system: Malme-3M
[19] = system: HL-60

Structure (SMILES)	GI50 [1]	GI50 [2]	GI50 [3]	GI50 [4]	GI50 [5]	GI50 [6]	GI50 [7]	GI50 [8]	GI50 [9]	GI50 [10]	GI50 [11]	GI50 [12]	GI50 [13]	GI50 [14]	GI50 [15]	GI50 [16]	GI50 [17]	GI50 [18]	GI50 [19]
Cc1ccsc1/C=N/Nc1nncc2ccccc12	90.2 µM (inactive)	> 100 µM (inactive)	> 100 µM (inactive)	> 100 µM (inactive)	> 100 µM (inactive)	> 100 µM (inactive)	> 100 µM (inactive)	> 100 µM (inactive)	> 100 µM (inactive)	> 100 µM (inactive)	34.3 µM (inactive)	93.3 µM (inactive)	> 100 µM (inactive)	96.4 µM (inactive)	> 100 µM (inactive)	> 100 µM (inactive)	58.3 µM (inactive)		
Nc1cc2c(c3ccccc13)C(CCl)CN2C(=O)c1cc2cc(NC(=O)Nc3ccc4[nH]c(C(=O)N5CC(CCl)c6c5cc(N)c5ccccc65)cc4c3)ccc2[nH]1 (centres undefined)	0.0153 µM (active)	< 0.01 µM (active)	0.0568 µM (active)	2.19 µM (inactive)	< 0.0176 µM (active)	0.367 µM (active)	0.292 µM (active)	0.275 µM (active)	1.79 µM (inactive)	0.612 µM (active)	0.171 µM (active)	0.0514 µM (active)	0.0404 µM (active)	0.141 µM (active)	< 0.0377 µM (active)	1.42 µM (inactive)	0.0573 µM (active)	0.412 µM (active)	
Cc1cc(=O)[nH]c2c1C(=O)c1c(C)cc(=O)n(C)c1C2=O	0.0545 µM (active)	0.0995 µM (active)	0.0514 µM (active)		0.043 µM (active)	0.122 µM (active)	0.0184 µM (active)	0.0293 µM (active)	0.195 µM (active)	0.166 µM (active)	0.157 µM (active)	0.129 µM (active)	0.167 µM (active)	0.0151 µM (active)	0.303 µM (active)	0.192 µM (active)	0.11 µM (active)	0.00177 µM (active)	0.153 µM (active)
COc1ccc2c(-c3csc(-c4c[nH]c5ccc(Br)cc45)n3)c[nH]c2c1	27.4 µM (inactive)	70 µM (inactive)	62.4 µM (inactive)	64.3 µM (inactive)	77.6 µM (inactive)	15.2 µM (inactive)	8.26 µM (inactive)	45.4 µM (inactive)	70.5 µM (inactive)	42.8 µM (inactive)	10.4 µM (inactive)	25.9 µM (inactive)	73.5 µM (inactive)	> 100 µM (inactive)	59.3 µM (inactive)	49 µM (inactive)	25.1 µM (inactive)	17.5 µM (inactive)	
Oc1nc2c(c(-c3cccc(Cl)c3)n1)COC/C2=C\c1cccc(Cl)c1	> 100 µM (inactive)	> 100 µM (inactive)	> 100 µM (inactive)	> 100 µM (inactive)		> 100 µM (inactive)	> 100 µM (inactive)	> 100 µM (inactive)	> 100 µM (inactive)	> 100 µM (inactive)	> 100 µM (inactive)	> 100 µM (inactive)	> 100 µM (inactive)	> 100 µM (inactive)	> 100 µM (inactive)	> 100 µM (inactive)	> 100 µM (inactive)		
Cc1ccc(C(=O)Nc2ccc(S(=O)(=O)O)c3cc(S(=O)(=O)O)cc(S(=O)(=O)O)c23)cc1NC(=O)Nc1cc(C(=O)Nc2ccc(S(=O)(=O)O)c3cc(S(=O)(=O)O)cc(S(=O)(=O)O)c23)ccc1C	> 87.5 µM (inactive)	> 87.5 µM (inactive)	> 87.5 µM (inactive)		> 87.5 µM (inactive)	> 87.5 µM (inactive)	> 87.5 µM (inactive)	> 87.5 µM (inactive)	> 87.5 µM (inactive)	> 87.5 µM (inactive)	> 87.5 µM (inactive)	> 87.5 µM (inactive)		> 87.5 µM (inactive)	> 87.5 µM (inactive)	> 87.5 µM (inactive)	> 87.5 µM (inactive)	> 87.5 µM (inactive)	> 87.5 µM (inactive)
